Experimental data taken from US10526322B2, “Inhibitors of kidney-type glutaminase, GLS-1” (CORNELL UNIVERSITY, priority 2014, dated 2020).

How the values were obtained:
[1] = molecular target: T1, 488-GAC (mouse kidney-type glutaminase isoform 2, GAC) (Mus musculus, UniProt D3Z7P3); assay: Real-time binding assay, quenching of 488-GAC fluorescence; conditions: 10 nM 488-GAC, 96-well plate format; read-out: KD of binding isotherm (fluorescence quenching)
T1 construct: (residues 72-603) was cloned into a pET23a vector; His-tag with thrombin cleavage site (N, cleaved yes); made in house
T1 sequence (D3Z7P3 72-603 isoform D3Z7P3-2): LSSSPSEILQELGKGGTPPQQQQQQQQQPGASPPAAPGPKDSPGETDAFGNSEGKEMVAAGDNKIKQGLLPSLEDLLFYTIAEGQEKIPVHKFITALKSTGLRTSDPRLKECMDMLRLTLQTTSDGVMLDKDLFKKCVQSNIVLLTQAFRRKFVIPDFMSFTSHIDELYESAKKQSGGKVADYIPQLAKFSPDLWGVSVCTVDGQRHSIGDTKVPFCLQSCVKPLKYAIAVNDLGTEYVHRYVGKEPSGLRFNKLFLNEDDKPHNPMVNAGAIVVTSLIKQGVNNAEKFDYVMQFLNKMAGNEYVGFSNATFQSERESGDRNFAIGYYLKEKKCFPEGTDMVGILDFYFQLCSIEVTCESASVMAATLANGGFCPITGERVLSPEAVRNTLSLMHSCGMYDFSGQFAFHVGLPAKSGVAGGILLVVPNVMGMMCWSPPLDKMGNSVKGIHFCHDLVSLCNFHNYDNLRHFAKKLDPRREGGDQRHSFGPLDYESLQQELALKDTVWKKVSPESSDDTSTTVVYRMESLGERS
Procedure: A plasmid encoding the mouse kidney-type glutaminase isoform 2 (GAC, GenBank Accession No. NP_001106854.1, which is hereby incorporated by reference in its entirety) (residues 72-603) was cloned into a pET23a vector containing an N-terminal histidine (His)-tag and thrombin cleavage site. The expressed protein was purified using Co^2+ affinity beads (Clontech), followed by His-tag cleavage with human thrombin (Haemetologic Technologies) overnight at 4° C., and subsequently purified by anion exchange (GE healthcare) and gel filtration chromatography. […] The stoichiometry of labeling was determined using the probe manufacturer's reported molar absorptivity values and instructions. Briefly, the concentration of GAC was determined by first correcting absorbance at 280 nm (Abs280) for each probe, using the reported correction values (0.11 for AlexaFluor 488 and 0.23 for QSY-9) and their absorbance values at their absorbance maxima (495 nm and 562 nm, respectively). The corrected Abs280 was used along with the experimentally determined molar absorptivity of GAC (ε280=38,850 M−1 cm−1). AlexaFluor 488 and QSY-9 probes were quantified using their respective absorbance maxima and the manufacturer's reported molar absorptivity values (ε495=71,000 M−1 cm−1 and ε562=85,000 M−1 cm−1). […]

[2] = molecular target: T2, GAC (Mus musculus, UniProt D3Z7P3); assay: Real-time GAC enzyme activity assay coupled to glutamate dehydrogenase (NADH fluorescence); assay type: biochemical
T2 construct: (residues 72-603) was cloned into a pET23a vector; His-tag with thrombin cleavage site (N, cleaved yes); made in house
T2 sequence (D3Z7P3 72-603 isoform D3Z7P3-2): T1 sequence (D3Z7P3 72-603 isoform D3Z7P3-2)

- Kd [1]: 3 µM
- potency of inhibition of GAC activity ([2]; GAC concentration decreased from 50 nM to 5 nM): greater potency
- inhibition of enzyme activity ([2]; GAC preincubated with inorganic phosphate (50 mM Pi) before 968): much less effective
Structure (SMILES): CN(C)c1ccc(C2Nc3ccc4ccccc4c3C3=C2C(=O)CC(C)(C)C3)cc1Br (stereo not drawn) [Compound 968]
